The values that follow come from patent US20230183239A1, “ECTONUCLEOTIDE PYROPHOSPHATASE-PHOSPHODIESTERASE 1 (ENPP-1) INHIBITORS AND USES THEREOF” (AbbVie Inc., priority 2017, published 2023).

Format in all cases: biochemical
The target in test [1] is T1, ENPP1 (Homo sapiens, UniProt P22413).
T1 sequence (P22413 1-925): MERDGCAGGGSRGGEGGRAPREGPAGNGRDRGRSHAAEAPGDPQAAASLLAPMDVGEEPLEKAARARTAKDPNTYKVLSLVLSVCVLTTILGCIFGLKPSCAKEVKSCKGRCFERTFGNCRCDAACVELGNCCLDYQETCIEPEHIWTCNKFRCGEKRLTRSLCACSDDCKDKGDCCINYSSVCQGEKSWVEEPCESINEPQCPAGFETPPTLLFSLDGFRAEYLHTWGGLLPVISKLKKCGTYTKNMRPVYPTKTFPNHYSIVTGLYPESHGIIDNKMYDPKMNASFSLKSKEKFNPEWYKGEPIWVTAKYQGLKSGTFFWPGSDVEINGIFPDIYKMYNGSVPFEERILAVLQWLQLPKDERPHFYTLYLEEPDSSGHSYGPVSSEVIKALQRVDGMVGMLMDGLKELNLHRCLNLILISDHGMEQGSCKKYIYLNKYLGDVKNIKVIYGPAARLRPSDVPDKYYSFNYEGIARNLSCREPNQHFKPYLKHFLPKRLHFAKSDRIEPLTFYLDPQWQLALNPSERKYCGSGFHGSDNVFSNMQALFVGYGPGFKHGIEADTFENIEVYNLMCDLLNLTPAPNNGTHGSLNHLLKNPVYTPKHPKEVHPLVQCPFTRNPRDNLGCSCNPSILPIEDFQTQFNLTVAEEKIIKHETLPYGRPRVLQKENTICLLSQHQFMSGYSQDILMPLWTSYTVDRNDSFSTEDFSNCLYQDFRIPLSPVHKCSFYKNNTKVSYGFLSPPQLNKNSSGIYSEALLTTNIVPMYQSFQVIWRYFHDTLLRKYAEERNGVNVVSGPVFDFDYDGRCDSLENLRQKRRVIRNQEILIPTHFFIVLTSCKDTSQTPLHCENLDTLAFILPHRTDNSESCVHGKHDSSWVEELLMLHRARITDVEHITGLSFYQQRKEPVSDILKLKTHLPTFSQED
Nature of the test: ENPP1 enzyme assay with AMP-pNP substrate (hydrolysis of ATP analog). The following applies: AMP-pNP substrate (ATP analog); Ki from IC50 by Cheng-Prusoff; read-out: ENPP1 Inhibition _AMP-pNP: Ki. The procedure: The ENPP1 assay with AMP-pNP substrate is conducted in a buffer containing 50 mM Tris-HCl (pH 8.5)/ 250 mM NaCl/0.5 mM CaCl2/1 µM ZnCl2/0.1% DMSO. Inhibitors are added at final concentrations ranging between 10 µM and 30 pM depending on the compound. Duplicate wells are run at each inhibitor concentration. The final assay volume is 40 µL and human recombinant ENPP1 is present at 60 ng/well. The assay is initiated by the addition of substrate (300 µM AMP-pNP final concentration), and incubated for 20 minutes at 37° C. […] Each assay plate also includes wells with no enzyme added (MIN OD) and wells with no inhibitor added (MAX OD). The percent inhibition of ENPP1 for each sample is then calculated as: […]
IC50 values of compounds were calculated by entering the percent inhibition values into a sigmoidal variable slope nonlinear regression model in GraphPad Prism® software.

Test [2] deals with T1, ENPP1. Nature of the test: Substrate selectivity ratio, inhibition of cGAMP hydrolysis versus ATP hydrolysis. The conditions noted are these: ratio Ki AMP-pNP / Ki cGAMP. The procedure: The selectivity ratios for inhibition of cGAMP hydrolysis versus ATP hydrolysis were then calculated as follows: […]
Test [3] deals with T1, ENPP1. Nature of the test: Indirect quantitation of 2',3'-cGAMP hydrolysis (AMP-Glo Assay kit). The conditions noted are these: cGAMP substrate; Ki from IC50 by Cheng-Prusoff; read-out: ENPP1 Inhibition -cGAMP: Ki.

One may read the Ki as a measure of affinity in units of concentration, obtained from inhibition or displacement. For `NS(=O)(=O)N1CCC2(CCN(c3ncnc4ccccc34)CC2)C1` [Example 158, 8-(quinazolin-4-yl)-2,8-diazaspiro [4.5] decane-2-sulfonamide], the Ki at ENPP1 [1] is 100 to 1000 nM; at ENPP1 [3], below 100 nM. Besides, the “Substrate Selectivity: Ki_AMP-pNP/Ki_cGAMP” value (from here on “Substrate Selectivity”) at ENPP1 [2] is on record as 16.3.

Consider `COc1cc2ncnc(N3CCC(CCC(=O)NO)CC3)c2cc1OC` [Example 159, 3-(1-(6,7-dimethoxyquinazolin-4-yl)piperidin-4-yl)-N-hydroxypropanamide], for which the Ki on ENPP1 [1] and on ENPP1 [3] was below 100 nM each time. Further, the “Substrate Selectivity” value on ENPP1 [2] is 54.8.

On to `COc1cc2nccc(N3CCC4(CC3)CCN(S(N)(=O)=O)C4)c2cc1OC` [Example 160, 8-(6,7-dimethoxyquinolin-4-yl)-2,8-diazaspiro[4.5]decane-2-sulfonamide], for which the inhibition constant Ki at ENPP1 [1] and on ENPP1 [3] was below 100 nM each time. The “Substrate Selectivity” value at ENPP1 [2] worked out at 13.9.

For the compound `COc1cc2ncnc(N3CCC(CCS(N)(=O)=O)CC3)c2cc1OC` [Example 164, 2-(1-(6,7-dimethoxyquinazolin-4-yl)piperidin-4-yl)ethane-1-sulfonamide], the inhibition constant Ki on ENPP1 [1] and on ENPP1 [3] was below 100 nM in each case. Also, the “Substrate Selectivity” value at ENPP1 [2] was 14.8.

As to `N#Cc1cnc2ccccc2c1N1CCC2(CC1)CCN(S(N)(=O)=O)C2` [Example 167, 8-(3-cyanoquinolin-4-yl) -2,8-diazaspiro [4.5] decane-2-sulfonamide], the results for the Ki at ENPP1 [1] and on ENPP1 [3] were 100 to 1000 nM and below 100 nM, respectively. Moreover, on ENPP1 [2], the “Substrate Selectivity” value is 10.6.

Take `COc1cc2ncnc(N3CCC(CCNS(N)(=O)=O)CC3)c2cc1Cl` [Example 169, N-(2-(1-(6-chloro-7-methoxyquinazolin-4-yl)piperidin-4-yl)ethyl)sulfamide]: the results for the Ki at ENPP1 [1] and on ENPP1 [3] were 100 to 1000 nM and below 100 nM, respectively. Moreover, the “Substrate Selectivity” value at ENPP1 [2] stood at 6.9.

For `COc1cc2ncnc(N3CCC(CCC(=O)O)CC3)c2cc1OC` [Example 171, 3-(1-(6,7-dimethoxyquinazolin-4-yl)piperidin-4-yl)propanoic acid], the Ki on ENPP1 [1] is above 1000 nM; at ENPP1 [3] it was 100 to 1000 nM. On ENPP1 [2], the “Substrate Selectivity” value is recorded as above 50.7.

Turning to `COc1cc2ncc(C#N)c(Nc3ccc(NS(N)(=O)=O)cc3)c2cc1OC` [Example 175, N-(4-((3-cyano-6,7-dimethoxyquinolin-4-yl)amino)phenyl)sulfamide], the Ki on ENPP1 [1] is above 1000 nM; on ENPP1 [3] it was below 100 nM. For the same compound, at ENPP1 [2], the “Substrate Selectivity” value was above 63.3.

With `COc1cc2nccc(NCc3ccc(NS(N)(=O)=O)cc3)c2cc1OC` [Example 180, N-(4-(((6,7-dimethoxyquinolin-4-yl)amino)methyl)phenyl)sulfamide], the results for the Ki at ENPP1 [1] and at ENPP1 [3] were above 1000 nM and 100 to 1000 nM, respectively. Besides, the “Substrate Selectivity” value on ENPP1 [2] is recorded as above 11.9.

For `COc1cc2ncnc(NCc3ccc(S(N)(=O)=O)cc3)c2cc1OC` [Example 182, 4-(((6,7-dimethoxyquinazolin-4-yl)amino)methyl)benzene sulfonamide], the figures for the Ki on ENPP1 [1] and at ENPP1 [3] were 100 to 1000 nM and below 100 nM, respectively. Further, the “Substrate Selectivity” value at ENPP1 [2] was 24.7.

Turning to `COc1cc2c(N3CCC(CCNS(N)(=O)=O)CC3)ncnc2cc1F` [Example 184, N-(2-(1-(7-fluoro-6-methoxyquinazolin-4-yl)piperidin-4-yl)ethyl)sulfamide], the Ki was above 1000 nM at ENPP1 [1] and 100 to 1000 nM at ENPP1 [3]. For the same compound, the “Substrate Selectivity” value on ENPP1 [2] is given as above 18.0.

On to `COc1cc2c(N3CCC(CCNS(N)(=O)=O)CC3)ncnc2cc1Cl` [Example 185, N-(2-(1-(7-chloro-6-methoxyquinazolin-4-yl)piperidin-4-yl)ethyl)sulfamide], for which the results for the Ki on ENPP1 [1] and on ENPP1 [3] were above 1000 nM and 100 to 1000 nM, respectively. Moreover, the “Substrate Selectivity” value at ENPP1 [2] is listed as above 8.00.

For `COc1cc2c(N3CCC(CCNS(N)(=O)=O)CC3)ncnc2cn1` [Example 189, N-(2-(1-(6-methoxypyrido[3,4-d]pyrimidin-4-yl)piperidin-4-yl)ethyl)sulfamide], the Ki on ENPP1 [1] is above 1000 nM; at ENPP1 [3], 100 to 1000 nM. Moreover, the “Substrate Selectivity” value at ENPP1 [2] is above 27.0.

As for `COc1cc2nccc(OCc3ccc(NS(N)(=O)=O)cc3)c2cc1OC` [Example 191, N-(4-(((6,7-dimethoxyquinolin-4-yl)oxy)methyl)phenyl) sulfamide], the Ki at ENPP1 [1] was above 1000 nM; on ENPP1 [3], 100 to 1000 nM. At ENPP1 [2], the “Substrate Selectivity” value is above 25.0.

In the case of `Cn1cnc2nccc(-c3ccc4c(c3)CN(S(N)(=O)=O)CC4)c21` [Example 193, 7-(1-methyl-1H-imidazo[4,5-b]pyridin-7-yl)-3,4-dihydroisoquinoline-2(1H)-sulfonamide], the Ki is above 1000 nM on ENPP1 [1] and below 100 nM on ENPP1 [3]. The “Substrate Selectivity” value at ENPP1 [2] was above 38.6.

Consider `COc1cc2ncnc(N3CCC(CCn4nnc(N)n4)CC3)c2cc1OC` [Example 195, 2-(2-(1-(6,7-dimethoxyquinazolin-4-yl)piperidin-4-yl)ethyl)-2H-tetrazol-5-amine], for which the inhibition constant (Ki) at ENPP1 [1] was above 1000 nM; on ENPP1 [3], 100 to 1000 nM. Moreover, the “Substrate Selectivity” value on ENPP1 [2] is listed as above 45.7.

Consider `COc1cc2ncnc(NCc3ccc(C(=O)NO)cc3)c2cc1OC` [Example 196, 4-(((6,7-dimethoxyquinazolin-4-yl)amino)methyl)-N-hydroxybenzamide], for which the inhibition constant (Ki) at ENPP1 [1] was above 1000 nM; at ENPP1 [3], below 100 nM. The “Substrate Selectivity” value at ENPP1 [2] is above 13.4.

Regarding `COc1cc2nccc(Oc3c(F)cc(NS(N)(=O)=O)cc3F)c2cc1OC` [Example 197, N-(4-((6,7-dimethoxyquinolin-4-yl)oxy)-3,5-difluorophenyl)sulfamide], the Ki on ENPP1 [1] was above 1000 nM; at ENPP1 [3], below 100 nM. Moreover, the “Substrate Selectivity” value on ENPP1 [2] is recorded as above 49.7.

As for `COc1ccc2c(N3CCC(CCNS(N)(=O)=O)CC3)ncnc2c1` [Example 198, N-(2-(1-(7-methoxyquinazolin-4-yl)piperidin-4-yl)ethyl)sulfamide], the Ki was 100 to 1000 nM on ENPP1 [1] and below 100 nM at ENPP1 [3]. In addition, at ENPP1 [2], the “Substrate Selectivity” value amounted to 39.2.

As to `COc1ccc2ncnc(N3CCC(CCNS(N)(=O)=O)CC3)c2c1` [Example 199, N-(2-(1-(6-methoxyquinazolin-4-yl)piperidin-4-yl)ethyl)sulfamide], the values for the Ki on ENPP1 [1] and at ENPP1 [3] were 100 to 1000 nM and below 100 nM, respectively. The “Substrate Selectivity” value at ENPP1 [2] turned out to be 33.6.

As to `COc1cc2ncnc(N3CCC(CCNS(=O)(=O)NC(C)=O)CC3)c2cc1OC` [Example 200, N-(N-(2-(1-(6,7-dimethoxyquinazolin-4-yl)piperidin-4-yl)ethyl)sulfamoyl)acetamide], the Ki is above 1000 nM on ENPP1 [1] and 100 to 1000 nM at ENPP1 [3]. Further, the “Substrate Selectivity” value at ENPP1 [2] is reported as above 64.2.

Turning to `COc1cc2nccc(Oc3ccc(NS(N)(=O)=O)cc3F)c2cc1OC` [Example 201, N-(4-((6,7-dimethoxyquinolin-4-yl)oxy)-3-fluorophenyl)sulfamide], the Ki at ENPP1 [1] was 100 to 1000 nM; on ENPP1 [3], below 100 nM. Besides, the “Substrate Selectivity” value on ENPP1 [2] is above 19.9.
